Consider 7 compounds from ChEMBL document CHEMBL6103633 (J Med Chem, 2025).

The target of data set [1] is T1, Ornithine decarboxylase (Homo sapiens) (UniProt P11926).
T1 sequence (whole entry): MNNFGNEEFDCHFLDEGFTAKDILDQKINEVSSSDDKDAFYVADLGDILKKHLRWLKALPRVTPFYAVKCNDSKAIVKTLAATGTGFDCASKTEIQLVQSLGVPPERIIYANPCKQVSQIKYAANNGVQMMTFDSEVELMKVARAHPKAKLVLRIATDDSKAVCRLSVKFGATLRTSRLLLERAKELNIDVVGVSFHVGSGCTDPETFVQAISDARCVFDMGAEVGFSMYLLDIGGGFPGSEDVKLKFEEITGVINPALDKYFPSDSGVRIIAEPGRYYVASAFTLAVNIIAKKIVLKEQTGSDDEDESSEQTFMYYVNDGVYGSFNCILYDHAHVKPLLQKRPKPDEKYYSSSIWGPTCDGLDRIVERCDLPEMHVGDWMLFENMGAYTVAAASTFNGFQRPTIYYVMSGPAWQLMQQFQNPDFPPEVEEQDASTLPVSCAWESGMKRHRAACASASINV
Briefly: Inhibition of human ODC in human Kelly cells assessed as reduction in spermine level at 500 microM incubated for 20 min by HPLC analysis. The format is cell-based.

The target of data set [2] is T1, Ornithine decarboxylase (Homo sapiens). Briefly: Inhibition of ODC in human Kelly cells assessed as reduction in spermidine level at 500 microM incubated for 20 min by HPLC analysis. It is filed as cell-based.
For data set [3] the target is unchanged. Briefly: Inhibition of human ODC in human Kelly cells assessed as effect on putrescine level at 500 microM incubated for 20 min by HPLC analysis. The format is cell-based.
Data set [4] has the same target. As to the kind of experiment: Inhibition of ODC in human Kelly cells at 500 uM incubated for 2 hrs by liquid scintillation analysis. It is filed as cell-based.
Data set [5] can be described thus: Dissociation constant, pKa of the compound. The format is physicochemical.
The nature of data set [6]: Cytotoxicity against Normal primary human neonatal fibroblast cell at 500 uM incubated for 72 hrs by SRB assay relative to control. The format is toxicity, cell-based. (In general: In SRB staining, fixed cells bind dye roughly in proportion to their protein.)
In data set [7] the target is T1, Ornithine decarboxylase (Homo sapiens). Briefly: Inhibition of full length C-terminal his-6 tagged human ODC extracted from Escherichia coli BL21 (DE3) cells at 50 uM incubated for 30 mins by liquid scintillation analysis relative to control.

Molecules are shown by their SMILES. The source made the active and inactive calls. No cut-off for these calls is given here.

Broadly, the inhibition is the relative decrease from the control value, in per cent. On to `NCCC[C@](N)(C(=O)O)C(F)F`, for which the inhibition entry in data set [1], in data set [2] and in data set [4] was “Active” throughout. In data set [3], the inhibition entry is “inactive”.
What is called pKa is the pH at which an ionisable group is half protonated. Low values mean a stronger acid or weaker base, high ones a weaker acid or stronger base. As for `Cc1ncc(COP(=O)(O)O)c(/C=N/OCCCN)c1O`, in data set [5], the pKa was roughly 5.9.
Take `NOC[C@@H]1CCCNC1`: the Activity in data set [6] was found to be 0%.
On the same count and under the same terms, in the case of `NOC[C@H]1CCCNC1` it was 0%.
Take `NOCC1(F)CCNC1` (racemic): the inhibition result in data set [1], in data set [2] and in data set [4] was “Active” in each case. For the same compound, the inhibition entry in data set [3] is “inactive”.
In the case of `NCCCON`, the inhibition result in data set [1], in data set [2] and in data set [4] was “Active” throughout. In data set [3], the inhibition result was “inactive”.
In data set [7], `NOCC1CNC1` yielded an inhibition of 0%.
